Assay results: patent US6913925B1, “Human mesencephalon cell lines and methods of use therefor” (Signal Pharmaceuticals LLC, priority 1998, dated 2005)

B1: GDNF: glial cell-derived neurotrophic factor (protein, UniProt P39905 78-211, looked up)
Glial cell line-derived …: SPDKQMAVLPRRERNRQAAAANPENSRGKGRRGQRGKNRGCVLTAIHLNVTDLGLGYETKEELIFRYCSGSCDAAETTYDKILKNLSRNRRLVSDKVGQACCRPIAFDDDLSFLDDNLVYHILRKHSAKRCGCI
B2: CNTF: ciliary neurotrophic factor (protein, UniProt P26441 1-200, looked up)
Ciliary neurotrophic factor: MAFTEHSPLTPHRRDLCSRSIWLARKIRSDLTALTESYVKHQGLNKNINLDSADGMPVASTDQWSELTEAERLQENLQAYRTFHVLLARLLEDQQVHFTPTEGDFHQAIHTLLLQVAAFAYQIEELMILLEYKIPRNEADGMPINVGDGGLFEKKLWGLKVLQELSQWTVRSIHDLRFISSHQTGIPARGSHYIANNKKM

The molecules below were run on immortalized human mesencephalon cells (assay: Differentiation of conditionally-immortalized human mesencephalon cell lines into neurons). Details: added together: forskolin 10 μM, GDNF 20 ng/mL, CNTF 20 ng/mL, IGF-I 100 ng/mL, BDNF 20 ng/mL.
Type: cell-based
From the text: Conditionally-immortalized human mesencephalon neural precursor cell lines (which may, but need not, be clonal) may generally be induced to differentiate into neurons by inhibiting the expression of the growth-promoting gene (i.e., suppressing the production and/or activity of the growth-promoting protein). For example, if the gene encoding the growth-promoting protein is under the control of an externally-regulatable promoter, the conditions (e.g. temperature or composition of medium) may be modified to suppress transcription of the growth-promoting gene. For the tetracycline-controlled gene expression system discussed above, differentiation may be achieved by the addition of tetracycline to suppress transcription of the growth-promoting gene. In general, 1-5 μg/mL tetracycline for 48 hours is sufficient to begin neuronal morphological differentiation, and the number of differentiated neurons increases during subsequent days. Such differentiation may be performed, for example, by plating the cells on a suitable substrate (e.g., one or a combination of polyamino acid, fibronectin, laminin or tissue culture plastic) in a medium consisting of DMEM/F-12 with N2 supplement and tetracycline (1-5 μg/mL). […] Culture medium may then be refreshed (e.g., every 2-4 days).
An increase in TH expression was also observed for some cell lines, indicating the presence of dopaminergic neurons.
One clone (MESII(1)-C2) was differentiated in DMEM/F-12 with N2 supplement, tetracycline (1 μg/mL), forskolin (10 μM), GDNF (20 ng/mL) and BDNF (20 ng/mL). Following differentiation, a high number of MAP2ab and TH immunoreactive cells were observed. For such immunocytochemistry, cells were fixed with 4% paraformaldehyde, and were incubated with primary antibody in blocking buffer for 2 hours at room temperature, rinsed, and then incubated with a fluorescein (FITC)- or Texas red-conjugated species-specific secondary antibody (Jackson lmmunoresearch Laboratories, Inc., West Grove, Pa.) in blocking buffer for another hour at room temperature. Cultures were then rinsed three times with PBS and coverslipped with PVA/DABCO before scoring and photographing representative fields.

**Q.** BDNF: brain-derived neurotrophic factor was tested. Which “enhancement of differentiation by addition to DMEM/F-12 with N2 supplement and tetracycline” value (shortened to “enhancement of differentiation”) did it give?
**A.** differentiation is enhanced

**Q.** How did the “enhancement of differentiation” value turn out when IGF-I: insulin-like growth factor was run?
**A.** differentiation is enhanced

**Q.** Which “enhancement of differentiation” value does the source give for B1 here?
**A.** differentiation is enhanced

**Q.** How did the “enhancement of differentiation” value turn out when B2 was run?
**A.** differentiation is enhanced
